The subject of series [1] is Escherichia coli (E. coli, ATCC 25922). The series can be described thus: MIC test, modified broth microdilution. The series is classed as cell-based. The conditions noted are these: read-out: Minimal inhibitory concentration (MIC) against E. coli. How it is done: (§1) All bacteria cells were first pre-grown overnight on blood agar plates at 37°C in a bacteriological incubator. Next, a single colony was transferred into fresh Muller Hinton broth (MHB) medium and harvested by centrifugation during the exponential growth phase, before being resuspended in sterile 0.9% physiological saline. Finally, bacterial cells were adjusted to the 0.5 McFarland standard (1.5 × 10^8 CFU/mL), and the solution was diluted in MHB to the predetermined concentrations.
(§2) MICs of all materials against MRSA, E. coli, and P. aeruginosa strains were determined using a modified broth microdilution method ([28]). Briefly, log-phase cultures (1.0 × 10⁶ CFU/mL) of each strain were inoculated into 96-well microtiter plates preloaded with serially diluted test compounds.
For orientation: Dilution methods test growth across graded concentrations, often in twofold steps.

In another series the test system is MRSA (ATCC 43300). The series can be described thus: MIC test, modified broth microdilution. The conditions noted are these: Staphylococcus aureus, 24 h. Format: cell-based. How it is done: as §1, §2
The nature of series [2]: Cytotoxicity assay (CCK-8). To be noted: mouse. How it is done:
(§3) The cytotoxicity of the nanocomposite was evaluated by CCK-8 assay using a commercial kit (CK04; Dojindo, Japan). […] Cell viability was calculated according to the following formula: cell viability (%) = (Ae − Ab)/(Ac − Ab) × 100% (Ab:OD of blank wells at 450 nm, Ac:OD of control wells at 450 nm, Ae:OD of experimental wells at 450 nm).

In series [3] the test system is Pseudomonas aeruginosa (P. aeruginosa, ATCC 27853). The series can be described thus: MIC test, modified broth microdilution. The conditions noted are these: ATCC27853, 24 h. Format: cell-based. How it is done:
as §1, §2

Series [4] deals with MRSA biofilm. The series can be described thus: Resazurin staining, metabolic activity of bacteria within biofilms. The conditions noted are these: 24 h. Format: cell-based, Staphylococcus aureus. As for the experimental part:
The metabolic activity of bacteria within biofilms was tested using resazurin (Sigma Aldrich, St. Louis, MO, USA), as previous report with slightly modified ([33]). Bacterial suspensions were exposed to graded concentrations (range 4–32 μg/mL) of [PTPP]·I in MHB broth for 24 h at 37°C. After incubation, the wells were washed three times with PBS and 0.01% final concentration of resazurin (Sigma Aldrich, St. Louis, MO, USA) was added, followed by an incubation for 1 h. Finally, the absorbance was detected in a Multi-mode detection platform (Molecular Devices, SpectraMax i3x) in fluorescence mode with excitation at 570 nm and emission at 600 nm. Bacterial suspensions without [PTPP]·I were set as a positive control, and pure MHB broth was set as a blank control, which were taken as 100% and 0% metabolic activity, respectively. Metabolic activity was calculated according to the following formula: metabolic activity (%) = (ΔAbs of sample − ΔAbs of blank control)/(ΔAbs of positive control − ΔAbs of blank control); ΔAbs = absorbance at 570 nm − absorbance at 600 nm.

For series [5], the system named is MRSA. The series can be described thus: Agar diffusion test. The conditions noted are these: 10 µL of 512 µg/mL on 6.0 mm disc, overnight 37°C. The series is classed as cell-based, Staphylococcus aureus. How it is done:
Bacterial suspensions (1.5 × 10^8 CFU/mL) were spread onto Mueller-Hinton (M-H) agar plates using sterile cotton swabs to form a uniform carpet. A 10 µL solution of each of the five nanomaterials at a concentration of 512 µg/mL, along with PBS, was carefully applied to the surface of filter paper discs (6.0 mm in diameter), which were then placed onto M-H agar plates and incubated overnight at 37°C. Inhibition zones appeared as transparent halos on the agar surface.

Series [6] deals with MRSA. The series can be described thus: Protein leakage assay (Bradford). The series is classed as cell-based, Staphylococcus aureus. To be noted: 32 µg/mL (2 × MIC), 24 h. How it is done: The quantitative detection of protein leakage of bacteria was carried out by protein leakage assay using a Bradford Protein Assay Kit (P0006; Beyotime, Nantong, China). […] The bacterial solution without [PTPP]·I was used as a control. The mixture was incubated in a shaker at 37°C for 24 h and then centrifuged at 10,000 rpm at 4°C for 10 min. The supernatant was immediately collected, and protein detection reagent was added to determine the optical density (OD 600) using a Microplate Reader (Thermo Fisher Scientific, Multiskan GO) and finally converted to protein concentration values based on the standard curve.

The subject of series [7] is MRSA. The series can be described thus: Time-kill kinetics assay (colony counting). The series is classed as cell-based, Staphylococcus aureus. How it is done: The bactericidal kinetics assay was carried out with a few minor modifications as previously stated to reveal the antimicrobial effectiveness of [PTPP]·I over time ([30]). […] Bacteria were sampled every 1 h from 0 h to 6 h, diluted in a gradient, and incubated in Luria-Bertani (LB) plates at 37°C for 24 h. Finally, plates with around 30 to 300 colonies were counted and CFU/mL for each time point was calculated to construct time-kill curves. After 3 h of treatment with different concentrations of [PTPP]·I, the bacterial solution was put into PBS for several consecutive 10-fold dilutions, and 100 µL of the mixture was uniformly spread on LB agar plates and then allowed to dry for a little while. The LB agar plates were placed in a constant-temperature incubator at 37°C for 24 h, and then the colonies on the LB agar plates were counted and photographed to observe the changes in the morphology and size of MRSA colonies.

The subject of series [8] is MRSA. The series can be described thus: Bacterial growth curve study (OD600). Format: cell-based, Staphylococcus aureus. How it is done:
Bacterial growth curve of [PTPP]·I against MRSA cells was determined by the method reported previously ([29]). […] The bacterial solution without [PTPP]·I was used as a positive control. OD values were continuously measured for 36 h at hourly intervals to construct bacterial growth curves.

The test system of series [9] is MRSA biofilm. The series can be described thus: Crystal violet staining of biofilm formation. Format: cell-based, Staphylococcus aureus. To be noted: 24 h. As for the experimental part: Crystal violet staining was performed by the method reported previously to measure the anti-biofilm effect of [PTPP]·I ([32]). […] A parallel study was also performed with LB broth as a blank control and the MRSA suspension was cultured in an empty well as a positive control. After incubation, the non-adhered bacteria were removed by gently washing with PBS at least three times, and the adherent biofilm was fixed with methanol for 15 min and stained with 0.1% (wt/vol) crystal violet for another 15 min. Then the excess crystal violet was removed by repeatedly washing with PBS until the blank control wells were colorless. Finally, crystal violet bound to the biofilm was dissolved in 500 µL 95% ethanol and added into 96-well plates to measure the absorbance at 595 nm using a Microplate Reader (Thermo Fisher Scientific, Waltham, MA, USA).

Series [10] deals with MRSA. The series can be described thus: SEM of bacterial morphology and bacterial biofilm. The conditions noted are these: 24 h. Format: cell-based, Staphylococcus aureus. How it is done: Scanning electron microscopy was used to observe bacterial morphology and bacterial biofilm formation. […] Samples were then washed with PBS and dehydrated in a graded ethanol series (30%, 50%, 70%, 80%, 90%, 95%, and 100%). After lyophilization and gold spraying, the MRSA cells were visualized by SEM (SU8100, Hitachi, Tokyo, Japan). Bacterial biofilms were subjected to SEM as previously reported with slight modifications ([31]). Cell crawling pieces were incubated in 1 mL of MRSA solution (1 × 10^6 CFU/mL) in a 24-well plate. […] After 24 h of incubation at 37°C, the samples were processed as described above and the MRSA biofilms on the cell crawling pieces were observed by scanning electron microscopy.

In a further series the test system is L929 cells. The series can be described thus: Cytotoxicity assay (CCK-8). The conditions noted are these: at the concentration of MIC, 24 h, CCK-8. How it is done:
as §3

Series [11] relates to MRSA. The series can be described thus: Reactive oxygen species assay (DCFH-DA). The series is classed as cell-based, Staphylococcus aureus. The conditions noted are these: 0.5 h. How it is done: The level of bacterial ROS induced by [PTPP]·I was detected by DCFH-DA assay (Reactive Oxygen Species Assay Kit, S0033S, Beyotime), as previously reported ([18]). Briefly, MRSA (1 × 10^8 CFU/mL) was inoculated with 10 µM of DCFH-DA in a centrifuge tube at 37°C for 30 min for probe loading. […] The bacterial solution without [PTPP]·I was included to use as a control. The samples were washed three times with sterile saline solution (0.9% NaCl). Finally, the level of bacterial total ROS was measured as the relative fluorescence intensity of the probes, which was detected in a Multi-mode detection platform (Molecular Devices, SpectraMax i3x) in fluorescence mode with excitation at 488 nm and emission at 525 nm.

The mark [12] stands for this setting: ATCC25922, broth microdilution, 37°C, 24 h.
The mark [13] stands for this setting: broth microdilution, 37°C, read-out: Minimal inhibitory concentration (MIC) against MRSA.
Where [14] appears, read: L929 cells, Cell viability of L929 cells, at the concentration of MIC, 24 h, CCK-8.

Like-named read-outs stand apart in the source and are kept apart here.

Usually viability stands for a per cent measure of how many cells are alive, often set against a control. In the case of `CC(C)[P+](c1ccccc1)(c1ccccc1)c1ccccc1` [[ITPP]·I, i-propyl-triphenyl-phosphonium iodide], the MIC in [1] (setting [12]) is no more than 512 µg/mL; in the series on MRSA (ATCC 43300) (setting [13]), no more than 64 µg/mL. The same compound returned a viability at 24 h in series [2] (setting [14]) of roughly 95%.
The like results for `CCCC[P+](c1ccccc1)(c1ccccc1)c1ccccc1` [[BTPP]·I, n-butyl-triphenyl-phosphonium iodide] were, in that order, no more than 512 µg/mL, no more than 32 µg/mL and roughly 95%.
As to `CC[P+](c1ccccc1)(c1ccccc1)c1ccccc1` [[ETPP]·I, ethyl-triphenyl-phosphonium iodide], the MIC in series [1] (setting [12]) was no more than 512 µg/mL; in [3] (broth microdilution, 37°C, 24 h, read-out: Minimal inhibitory concentration (MIC) against P. aeruginosa) it was 8000 µg/mL; in the series with MRSA (ATCC 43300) (setting [13]), no more than 64 µg/mL. In series [2] (setting [14]), this compound came in with a viability at 24 h of roughly 90%.
In the case of `CCCCC[P+](c1ccccc1)(c1ccccc1)c1ccccc1` [[PTPP]·I, n-pentyl-triphenyl-phosphonium iodide], the MIC in [1] (setting [12]) is no more than 512 µg/mL; with MRSA (ATCC 43300) (setting [13]), 16 µg/mL. For the same compound, the “Metabolic activity of biofilm bacteria, of positive control” value in the series with MRSA biofilm [4] (1/2 × MIC) was “more than 50%”. Further, in the series with MRSA biofilm [4] (1 × MIC), the “Metabolic activity of intra-film bacteria, of positive control” value is 1%. Also, in the series on MRSA [5], the “Inhibition halos against MRSA” value is “obvious inhibition halos”. For the same compound, the “Protein leakage relative to control group” value in the series on MRSA [6] was “about 2.6 times”. For the same compound, the “Time to achieve survival rate less than 1%” value in the series with MRSA [7] (1 × MIC) was determined as 6 h. Also, the “Reduction of viable count” value in the series with MRSA [7] (1 × MIC, within 1 h) was “approximately 1 log10 CFU/mL”. In addition, in the series with MRSA [7] (4 × MIC for 2 h), the Survival rate entry is “less than 1%”. In addition, the “Bacterial growth (OD600)” value in the series with MRSA [8] (2 µg/mL (1/8 × MIC) to 16 µg/mL (1 × MIC)) is on record as “significantly inhibited”. In addition, in the series with MRSA [8] (at 1/2 × MIC), the “Lag phase of MRSA growth” value was “up to 10 h”. Moreover, the “Reduction of biofilm biomass” value in the series on MRSA biofilm [9] (1/2 × MIC) amounted to 35.4%. Further, the “Reduction of biofilm biomass (biofilm inhibition rate)” value with MRSA biofilm [9] (1 × MIC) is 96.6%. Moreover, the “Biofilm on cell crawling pieces by SEM” value with MRSA [10] (16 µg/ml (1 × MIC)) is on record as “no biofilm but only the residue of bacterial disruption”. Further, the “Bacterial morphology by SEM” value with MRSA [10] (32 µg/mL (2 × MIC)) is “membranes/walls of MRSA cells became rough and concave, holes appeared”. Further, the viability at 24 h in series [2] (setting [14]) is greater than 97%. Besides, the “Cell viability of L929 cells” value with L929 cells is 97%. The figures for the “ROS level elevation vs the control group” value in the series on MRSA [11] (1 × MIC), in the series on MRSA [11] (2 × MIC) and with MRSA [11] (4 × MIC) were 20%, 30% and 141%, respectively.
As for `C[P+](c1ccccc1)(c1ccccc1)c1ccccc1` [[MTPP]·I, methyl-triphenyl-phosphonium iodide], the MIC in series [1] (ATCC25922, 24 h) was no more than 512 µg/mL; in series [3] (read-out: Minimal inhibitory concentration (MIC) against P. aeruginosa, broth microdilution, 37°C, 24 h) it was 8000 µg/mL; in the series on MRSA (ATCC 43300) (read-out: Minimal inhibitory concentration (MIC) against MRSA, broth microdilution, 37°C, 24 h), 128 µg/mL. Also, the viability at 24 h in [2] is roughly 90%.
